Here are results for one compound from patent US9303026B2, “Antiviral agents” (Biota Scientific Management Pty Ltd, priority 2000, dated 2016).

The term CC50 denotes the concentration that lowers cell viability or growth by half. Low readings indicate greater toxicity to the cells, high ones lower toxicity to the cells.

A short description of this series: Cytotoxicity in uninfected treated cultures (CC50). It counts as cell-based. To be noted: human, uninfected MRC-5 human embryo lung cells; Table 7; concentration yielding 50% cytotoxicity, uninfected MRC-5 cells.

`CSc1nc2ccc(OCCC3CCN(c4ccc(C)nn4)CC3)cc2o1` [Compound 4, 6-{2-[1-(6-Methyl-3-pyridazinyl)-4-piperidinyl]ethoxy}-2-methylthiobenzoxazole] showed a CC50 of more than 1 µg/mL.
